Data as given in patent publication US20260097049A1, “C[…] AND METHODS OF USE FOR TREATMENT AND PREVENTION OF CANCER” (BlackStone Therapeutics, LLC, priority 2022, published 2026).
pIC50: −log10 of the molar value. Read-outs that look alike come from different tables or passages of the source.

What was measured:
Assay type in all cases: cell-based
[1] = tested on: A549 Lung Carcinoma Epithelial Cells (CCL-185 from ATCC); assay: Percent viability of lung carcinoma cells; settings: for viability at 1.56 µM / viability at 3.12 µM / viability at 6.25 µM / viability at 12.5 µM / viability at 25 µM / viability at 50 µM: Homo sapiens; for cell viability, comparison in words (figure legends): FIGS. 39, 42, 43
Procedure: GR-X1=H4CBDV, GR-X2=(R)-H4CBD, GR-X3=(S)-H4CBD, GR-X4=HHC.
The IC50 of the hydrogenated cannabivarin, hexahydrocannabidivarin (H4CBDV), (R)-H4CBD, (S)-H4CBD, HHC racemic mixture, and gemcitabine, paclitaxel, and 5-fluorouracil were determined in lung carcinoma cells (A549 Lung Carcinoma Epithelial Cells (CCL-185 from ATCC)) as shown in FIGS. 39-43 and Table 3.

PANC1 = assay: IC50 in cell lines (Table 4), PANC1; settings: Homo sapiens, PANC-1
Procedure: (§1) Various compounds, including (R)-H4CBD and (S)-H4CBD, and H4CBDV racemic mixture, were tested for cell killing against various cancer cell lines, including PANC-1, HPAF-II, AsPC-1, and MIA-PaCa2.
(§2) Table 4 summarizes the measured IC50 for specific compounds in the indicated cell types.

AsPC-1 [2] = assay: IC50 in cell lines (Table 4), AsPC-1; settings: Homo sapiens, ASPC1
Procedure: as §1, §2

HPAFII = assay: IC50 in cell lines (Table 4), HPAFII; settings: Homo sapiens, HPAF-II
Procedure: as §1, §2

MIA-PaCa2 = assay: IC50 in cell lines (Table 4), MIA-PaCa2; settings: Homo sapiens, MIA PaCa-2
Procedure: as §1, §2

hERG = hERG (Homo sapiens, UniProt Q12809); assay: hERG assay
Procedure: (§3) At 50 μM, 74.8% of human fibroblasts died and 8% of hepatocytes.

hepatocytes = assay: Cytotoxicity in hepatocytes; settings: at 50 μM
Procedure: as §3

Ames test = assay: Ames test
human fibroblasts = assay: Cytotoxicity in human fibroblasts
Procedure: as §3

MiaPaCA-2 = assay: CellTiterGlo cell viability, MiaPaCA-2 cells; settings: Homo sapiens, MIA PaCa-2, 72 h
Procedure: (§4) The IC50 values for (R)-H4CBD, (S)-H4CBD, H4CBDV racemic mixture, and bortezomib were determined. Compound treatment of cells started one day after seeding with a final DMSO concentration of 0.1% and was performed by nanodrop-dispensing using a Tecan Dispenser. 0.1% DMSO (solvent) and Staurosporine (1,0E-05M) served as high control (100% viability) and low control (0% viability), respectively. For the assays, cells were seeded in white cell culture-treated flat and clear bottom multiwell plates and incubated at 37° C. overnight before compounds were added. After incubation for 72 h at 37° C. at 5% or 10% CO2 dependent on the medium, cell plates were equilibrated to room temperature for one hour, CellTiterGlo reagent (Promega) was added and luminescence was measured approximately an hour later using a luminometer.
(§5) Raw data were converted into percent cell viability relative to the high and low control, which were set to 100% and 0%, respectively. IC50 calculation was performed using GraphPad Prism software with a variable slope sigmoidal response fitting model using 0% viability as bottom constraint and 100% viability as top constraint. IC50 results in PANC-1, MIA-PaCa2, and AsPC-1 cells for (R)-H4CBD, (S)-H4CBD, H4CBDV racemic mixture, and bortezomib are shown in FIGS. 10-12 and Table 2

AsPC-1 [3] = assay: CellTiterGlo cell viability, AsPC-1 cells; settings: Homo sapiens, ASPC1, 72 h
Procedure: as §4, §5

PANC-1 = assay: CellTiterGlo cell viability, PANC-1 cells; settings: Homo sapiens, 72 h
Procedure: as §4, §5

[4] = A549, agent concentration 1.56 uM, read-out: Percent viability of cells, Mean (%)
[5] = A549, agent concentration 3.12 uM, read-out: Percent viability of cells, Mean (%)
[6] = A549, agent concentration 6.25 uM, read-out: Percent viability of cells, Mean (%)
[7] = A549, agent concentration 12.5 uM, read-out: Percent viability of cells, Mean (%)
[8] = A549, agent concentration 25 uM, read-out: Percent viability of cells, Mean (%)
[9] = A549, agent concentration 50 uM, read-out: Percent viability of cells, Mean (%)
[10] = A549, read-out: Percent viability of cells, Mean (%)

Sequence of hERG (Q12809 whole entry): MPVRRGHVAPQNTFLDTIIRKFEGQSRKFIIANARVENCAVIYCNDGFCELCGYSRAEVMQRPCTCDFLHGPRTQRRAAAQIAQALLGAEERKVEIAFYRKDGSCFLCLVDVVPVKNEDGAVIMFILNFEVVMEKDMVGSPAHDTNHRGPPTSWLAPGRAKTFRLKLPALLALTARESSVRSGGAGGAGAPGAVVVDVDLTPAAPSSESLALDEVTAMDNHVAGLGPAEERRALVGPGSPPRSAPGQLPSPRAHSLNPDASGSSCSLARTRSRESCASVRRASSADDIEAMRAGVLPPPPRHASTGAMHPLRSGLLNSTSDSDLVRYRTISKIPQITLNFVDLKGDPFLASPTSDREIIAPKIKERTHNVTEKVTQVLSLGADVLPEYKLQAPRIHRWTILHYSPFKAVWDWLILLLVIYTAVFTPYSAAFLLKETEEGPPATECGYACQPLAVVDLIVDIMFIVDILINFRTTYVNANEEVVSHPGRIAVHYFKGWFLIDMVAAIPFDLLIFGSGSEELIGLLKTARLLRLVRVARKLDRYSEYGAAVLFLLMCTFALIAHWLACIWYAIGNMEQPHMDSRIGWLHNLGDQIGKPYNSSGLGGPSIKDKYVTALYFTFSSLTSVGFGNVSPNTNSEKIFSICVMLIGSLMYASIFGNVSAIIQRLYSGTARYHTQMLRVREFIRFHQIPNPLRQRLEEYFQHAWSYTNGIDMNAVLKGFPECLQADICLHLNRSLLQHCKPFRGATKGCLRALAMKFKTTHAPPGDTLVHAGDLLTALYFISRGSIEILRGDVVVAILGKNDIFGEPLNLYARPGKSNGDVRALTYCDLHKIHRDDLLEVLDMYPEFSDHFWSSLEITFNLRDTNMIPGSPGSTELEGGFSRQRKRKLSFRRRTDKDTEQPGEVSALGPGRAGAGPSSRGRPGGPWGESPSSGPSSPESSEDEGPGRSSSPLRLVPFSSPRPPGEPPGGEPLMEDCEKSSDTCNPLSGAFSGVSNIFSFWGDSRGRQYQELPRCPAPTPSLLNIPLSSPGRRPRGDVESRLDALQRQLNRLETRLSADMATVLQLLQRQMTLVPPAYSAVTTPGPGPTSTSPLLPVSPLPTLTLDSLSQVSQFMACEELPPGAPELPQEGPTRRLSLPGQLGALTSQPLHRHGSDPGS

## CCCCCc1cc(O)c(C2C[C@H](C)CCC2C(C)C)c(O)c1 (some centres unmarked) [R- H4CBDV]
[1]; [4]
  viability at 1.56 µM: 92.3%
[1]; [5]
  viability at 3.12 µM: 86.7%
[1]; [6]
  viability at 6.25 µM: 86%
[1]; [7]
  viability at 12.5 µM: 45%
[1]; [8]
  viability at 25 µM: 14%
[1]; [9]
  viability at 50 µM: 4.18%

## O=c1[nH]cc(F)c(=O)[nH]1 [5-fluorouracil, reference compound]
[1]
  cell viability, comparison in words (figure legends): presented the best cell viability when compared to the other two drugs, gemcitabine and paclitaxel

## CCCCCc1cc(O)c2c(c1)OC(C)(C)C1CC[C@H](C)CC21 (stereo partly drawn) [CCL-102, 9S-Hexahydrocannabinol]
PANC1
  IC50: 0.0172 mM
AsPC-1 [2]
  IC50: 0.0115 mM
HPAFII
  IC50: 0.00702 mM
MIA-PaCa2
  IC50: 0.0272 mM

## CCCc1cc(O)c2c(c1)OC(C)(C)C1CCC(C)CC21 (racemic) [CCL-103, HHCV]
PANC1
  IC50: 0.00507 mM
MIA-PaCa2
  IC50: 0.0197 mM

## CCCCCc1cc(O)c2c(c1)OC(C)(C)C1CC[C@@H](C)CC21 (stereo partly drawn) [CCL-101, 9R-Hexahydrocannabinol]
PANC1
  IC50: 0.00908 mM
AsPC-1 [2]
  IC50: 0.0166 mM
HPAFII
  IC50: 0.00884 mM
MIA-PaCa2
  IC50: 0.0127 mM

## CCCCCc1cc(O)c2c(c1)OC(C)(C)C1CCC(C)CC21 (racemic) [CCL-113, hexahydrocannabinol]
[1]
  cell viability, comparison in words (figure legends): the only compound that presented higher cell viability from 25 μM
[1]; [10]
  viability at 1.56 µM: 92.5%
  viability at 3.12 µM: 92.9%
  viability at 6.25 µM: 95.6%
  viability at 12.5 µM: 96.1%
  viability at 25 µM: 81.6%
  viability at 50 µM: 22.1%
hERG
  cytotoxicity in hERG assay: did not show cytotoxicity
hepatocytes
  hepatocytes died: 8%
Ames test
  cytotoxicity in Ames test: did not show cytotoxicity
Human fibroblasts; Homo sapiens, Fibroblast
  pIC50: 4.84
Human fibroblasts; at 50 μM
  human fibroblasts died: 74.8%

## CCCCCc1cc(O)c(C2C[C@@H](C)CCC2C(C)C)c(O)c1 (stereo partly drawn) [CCL-112, (S)-H4CBD]
MiaPaCA-2
  IC50: 4.77 µM
AsPC-1 [3]
  IC50: 6.17 µM
PANC-1
  IC50: 8.02 µM

## CCCCCCCc1cc(O)c(C2CC(C)CCC2C(C)C)c(O)c1 (racemic) [CCL-105, H4CBDP]
PANC1
  IC50: 0.00255 mM
MIA-PaCa2
  IC50: 0.0061 mM

## CCCCCc1cc(O)c(C2C[C@@H](C)CCC2C(C)C)c(O)c1 (some centres unmarked) [S- H4CBDV]
[1]; [4]
  viability at 1.56 µM: 94.2%
[1]; [5]
  viability at 3.12 µM: 99.6%
[1]; [6]
  viability at 6.25 µM: 94.1%
[1]; [7]
  viability at 12.5 µM: 81.3%
[1]; [8]
  viability at 25 µM: 13.8%
[1]; [9]
  viability at 50 µM: 1.53%

## CC(=O)O[C@H]1C(=O)[C@@]2(C)[C@H]([C@H](OC(=O)c3ccccc3)[C@]3(O)C[C@H](OC(=O)[C@H](O)[C@@H](NC(=O)c4ccccc4)c4ccccc4)C(C)=C1C3(C)C)[C@]1(OC(C)=O)CO[C@@H]1C[C@@H]2O [paclitaxel, reference compound]
[1]
  cell viability, comparison in words (figure legends): higher cytotoxicity at a lower concentration than 5-flurouracil

## CC(C)C[C@H](NC(=O)[C@H](Cc1ccccc1)NC(=O)c1cnccn1)B(O)O [Bortezomib, reference compound]
MiaPaCA-2
  IC50: 0.0149 µM
AsPC-1 [3]
  IC50: 0.0334 µM
PANC-1
  IC50: 0.0134 µM

## CCCCCc1cc(O)c(C2C[C@H](C)CCC2C(C)C)c(O)c1 (stereo partly drawn) [CCL-111, (R)-H4CBD]
MiaPaCA-2
  IC50: 3.24 µM
AsPC-1 [3]
  IC50: 4.85 µM
PANC-1
  IC50: 5.29 µM
